Values joined by “and” are separate entries in the source; they are usually repeats but may differ in a detail not shown here. Identical values can stand only once.
Experiments:
HCAEC = test: Release of CAM-specific EMP from TNF-α-activated HCAEC, two-color flow cytometry with TruCount beads; type: cell-based, human; settings: 24 hours
Method: HCAECs were purchased from Cambrex Bio Science (Walkersville, Md.) and cultured according to the supplier's specifications. All experiments were performed on confluent cells. EC were treated with 10 ng/mL TNF-α alone or with the addition of fluvatstain (0.1 μmol/mL) or ROK inhibitor, Y-27632 (10 μmol M/L). Controls were un-treated. After 24 hours culture supernatants from flasks containing HCAEC were collected and centrifuged for 30 min at 17,570×g, (4° C.). Pellets were re-suspended in 1 mL of PBS and were analyzed on the same day. For single platform method, 3 μL each of FITC-conjugated and PE-conjugated monoclonal antibodies against the above mentioned CAMs plus 50 μL of re-suspended pellet were added to tubes (two antibodies/tube) preloaded with fluorescent TruCount™ bead lyophilized pellets (Becton Dickinson Biosciences, San Jose, Calif.). Tubes were incubated for 20 min at room temperature. Analysis of EMPs was performed using a FACScan Flow Cytometer (Becton Dickinson Biosciences, San Jose, Calif.). The EMPs were excited with 488 nm light from a 15 mW argon laser. Logarithmic green and red fluorescences of FITC and PE were measured through 530/30 nm and 585/42 nm bandpass filters, respectively. Data from 2,000 events were acquired and analyzed with the use of CELLQuest™ software (version 3.3, Becton Dickinson). The absolute number of EMPs was calculated from the appropriate dot plot values entered into the following formula: [formula] The total number of beads per tube is supplied by the manufacturer and varies among lot numbers. RhoA Activity Statistical analysis was performed using SPSS 10.0.7 statistical software (SPSS Inc., Chicago, Ill.). Values are stated as mean±SEM. One-way ANOVA was used to compare means from three or more groups. In cases where the data were not normally distributed, the Mann-Whitney rank sum test was used. A value of p<0.05 was considered as significant for all tests.

RhoA = RhoA activity pull-down assay (Rhotekin Rho Binding Domain agarose, western blot) in HCAEC; type: cell-based, human; settings: TNF-α 10 ng/mL, 24 hours
Method: HCAECs were purchased from Cambrex Bio Science (Walkersville, Md.) and cultured according to the supplier's specifications. All experiments were performed on confluent cells. EC were treated with 10 ng/mL TNF-α alone or with the addition of fluvatstain (0.1 μmol/mL) or ROK inhibitor, Y-27632 (10 μmol M/L). Controls were un-treated. After 24 hours culture supernatants from flasks containing HCAEC were collected and centrifuged for 30 min at 17,570×g, (4° C.). Pellets were re-suspended in 1 mL of PBS and were analyzed on the same day. RhoA activity was determined by a pull-down assay. The cell lysates were incubated with Rhotekin Rho Binding Domain agarose for 45 minutes. The agarose beads were collected and electrophoresed in 8-16% SDS-PAGE gel (Cambrex, Rockland, Me.). GDP and GTP-labeling of cell lysates served as negative and positive controls, respectively. Western blotting was performed with RhoA antibody at a dilution of 1:200. The blot densities were analyzed with Mocha Image Analysis (version 1.2.10).

[1] = HCAEC, TNF-α 10 ng/mL plus Fluvastatin 0.1 μM/L, mean ± SEM
[2] = HCAEC, TNF-α 10 ng/mL plus Fluvastatin 0.1 μM/L, mean ± SEM, listed as Flu
[3] = HCAEC, TNF-α 10 ng/mL plus Y-27632 (10 μmol M/L), mean ± SEM
[4] = HCAEC, TNF-α 10 ng/mL alone, mean ± SEM, six experiments
[5] = HCAEC, TNF-α 10 ng/mL, versus control, not significant

CC(C)n1c(/C=C/C(O)CC(O)CC(=O)O)c(-c2ccc(F)cc2)c2ccccc21 (centres unmarked) [Fluvastatin]
absolute count of EMP, CD51 (Vitronectin) (HCAEC; [1]): 43 ±7.3 ×10^6/mL | absolute count of EMP, CD62E (ELAM) (HCAEC; [1]): 80 ± 7 ×10^6/mL | absolute count of EMP, CD105 (Endoglin) (HCAEC; [1]): 45±7.6 ×10^6/mL | absolute count of EMP, CD31 (PECAM-1) (HCAEC; [2]): 231 ± 80 ×10^6/mL | absolute count of EMP, CD51 (Vitronectin) (HCAEC; [2]): 43 ± 7 ×10^6/mL | absolute count of EMP, CD 54 (ICAM-1) (HCAEC; [2]): 125 ± 35 ×10^6/mL | absolute count of EMP, CD105 (Endoglin) (HCAEC; [2]): 45 ± 8 ×10^6/mL | absolute count of EMP, CD106 (VCAM-1) (HCAEC; [2]): 167 ± 45 ×10^6/mL | suppression of CD62+ EMP (HCAEC; TNF-α-activated HCAEC, versus TNF-α alone, not statistically significant): 19%

C[C@@H](N)[C@H]1CC[C@H](C(=O)Nc2ccncc2)CC1 [Y-27632]
absolute count of EMP, CD51 (Vitronectin) (HCAEC; [3]): 44 ± 10 ×10^6/mL | absolute count of EMP, CD62E (ELAM) (HCAEC; [3]): 65 ± 13 ×10^6/mL | absolute count of EMP, CD105 (Endoglin) (HCAEC; [3]): 56±13 ×10^6/mL

tumor necrosis factor-α [TNF-α]
absolute count of EMP, CD31 (PECAM-1) (HCAEC; [4]): 233±77 ×10^6/mL | absolute count of EMP, CD51 (Vitronectin) (HCAEC; [4]): 76.4±46 ×10^6/mL and 76 ± 46 ×10^6/mL | absolute count of EMP, CD 54 (ICAM-1) (HCAEC; [4]): 129 ± 44 ×10^6/mL | absolute count of EMP, CD62E (ELAM) (HCAEC; [4]): 99 ± 3 ×10^6/mL | absolute count of EMP, CD105 (Endoglin) (HCAEC; [4]): 124±34 ×10^6/mL | increase of CD54 positive EMP (HCAEC; [5]): 57% | increase of CD62 positive EMP (HCAEC; [5]): 15% | RhoA activation (RhoA): induced
